The target in assay [1] is human recombinant sGC enzyme (Homo sapiens (Human), UniProt Q02108+Q02153). Description: Size Exclusion Chromatography (SEC) competition binding assay using [3H] Ex-77B as the radioligand. The settings on record: [3H] Ex-77B radioligand, 24 hours at 37° C. The essentials:
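Recombinant human sGC binding measured by competition against tritiated Ex-77B radioligand, with non-specific binding defined by 1 μM unlabeled Ex-77B.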

Assay [2] has as its target sGC α1/β1 heterodimer (Homo sapiens (Human), UniProt Q02108+Q02153). Description: Cell-based sGC functional assay (cyclic GMP assay for sGC activator: CASA assay). The note with it: CHO-K1/sGC cells; for Emax: CHO-K1, activity expressed as percentage of compound A (standard), read-out: % Activation; for EC50: inflection point, 4P fit, read-out: IP. The arrangement: % Activation: concentration or dose not given beside the values. The essentials: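 CHO-K1 cells stably expressing sGC α1/β1 were pre-incubated with or without 1 μM DETA-NO (30 min, 25 °C), then exposed to compounds for 1 hr at 37 °C with 0.5 mM IBMX. Intracellular cGMP was read by HTRF and expressed as a percentage of a reference heme-dependent activator's maximum.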

On to `CC1(c2cccc(C(=O)O)n2)C(=O)Nc2nc(-c3nn(Cc4ccccc4F)c4cc(Cl)ccc34)nc(N)c21` (stereo not drawn) [Example 255A, 6-{4-Amino-2-[6-chloro-1-(2-fluorobenzyl)-1H-indazol-3-yl]-5-methyl-6-oxo-6,7-dihydro-5H-pyrrolo[2,3-d]pyrimidin-5-yl}picolinic acid], for which the Ki in assay [1] amounted to 0.073 nM. In addition, in assay [2], the Emax stood at 108% and the EC50 worked out at 1480 nM.

For the compound `Cc1ccc2c(-c3nc(N)c4c(n3)NC(=O)[C@@]4(C)c3ccc(CCC(=O)O)cc3)nn(Cc3ccc(C)c(F)c3F)c2n1` [Example 25B, (S)-3-(4-{4-amino-2-[1-(2,3-difluoro-4-methylbenzyl)-6-methyl-1H-pyrazolo[3,4-b]pyridin-3-yl]-5-methyl-6-oxo-6,7-dihydro-5H-pyrrolo[2,3-d]pyrimidin-5-yl}phenyl)propanoic acid], the Ki in assay [1] was 0.262 nM. In addition, in assay [2], the Emax is 147% and the EC50 is 201 nM.

For the compound `CC(C)(Cc1coc(C2(C)C(=O)Nc3nc(-c4nn(Cc5ccccc5F)c5ncccc45)nc(N)c32)n1)C(=O)O` (stereo not drawn) [Example 1A, 3-(2-{4-Amino-2-[1-(2-fluorobenzyl)-1H-pyrazolo[3,4-b]pyridin-3-yl]-5-methyl-6-oxo-6,7-dihydro-5H-pyrrolo[2,3-d]pyrimidin-5-yl}oxazol-4-yl)-2,2-dimethylpropanoic acid], in assay [1], the Ki came out at 0.047 nM. Besides, in assay [2], the Emax was 120% and the EC50 amounted to 409 nM.

As to `C[C@@]1(c2ccc(CCC(=O)N[C@H](CO)C(=O)O)cc2)C(=O)Nc2nc(-c3nn(Cc4ccccc4F)c4ncccc34)nc(N)c21` [Example 106B, (5S)-(3-(4-{4-amino-2-[1-(2-fluorobenzyl)-1H-pyrazolo[3,4-b]pyridin-3-yl]-5-methyl-6-oxo-6,7-dihydro-5H-pyrrolo[2,3-d]pyrimidin-5-yl}phenyl)propanoyl)-D-serine], the Ki in assay [1] was found to be 0.058 nM. Further, in assay [2], the Emax came to 70% and the EC50 amounted to 1500 nM.

Take `CC1(c2ccc(CCC(=O)O)cn2)C(=O)Nc2nc(-c3nn(Cc4ccccc4F)c4cc(Cl)ccc34)nc(N)c21` (stereo not drawn) [Example 129A, 3-(6-{4-amino-2-[6-chloro-1-(2-fluorobenzyl)-1H-indazol-3-yl]-5-methyl-6-oxo-6,7-dihydro-5H-pyrrolo[2,3-d]pyrimidin-5-yl}pyridin-3-yl)propanoic acid]: in assay [1], the Ki turned out to be 0.117 nM. Also, in assay [2], the Emax was 98.5% and the EC50 is 51 nM.

Take `CC1(c2ccc(OCC(=O)O)cc2)C(=O)Nc2nc(-c3nn(Cc4ccccc4F)c4cc(Cl)ccc34)nc(N)c21` (stereo not drawn) [Example 260A, (4-{4-Amino-2-[6-chloro-1-(2-fluorobenzyl)-1H-indazol-3-yl]-5-methyl-6-oxo-6,7-dihydro-5H-pyrrolo[2,3-d]pyrimidin-5-yl}phenoxy)acetic acid]: the Ki in assay [1] was 0.058 nM. Besides, in assay [2], the Emax is 136% and the EC50 turned out to be 125 nM.

Consider `CC(C)(Cc1coc(C2(C)C(=O)Nc3nc(-c4nn(Cc5ccccc5F)c5ccccc45)nc(N)c32)n1)c1nn[nH]n1` (stereo not drawn) [Example 248B, 4-Amino-2-[1-(2-fluorobenzyl)-1H-indazol-3-yl]-5-methyl-5-{4-[2-methyl-2-(2H-tetrazol-5-yl)propyl]oxazol-2-yl}-5,7-dihydro-6H-pyrrolo[2,3-d]pyrimidin-6-one], for which the Ki in assay [1] amounted to 0.048 nM. Further, in assay [2], the Emax stood at 106% and the EC50 amounted to 116 nM.

On to `CC[C@H](NC(=O)CCc1ccc([C@]2(C)C(=O)Nc3nc(-c4nn(Cc5ccccc5F)c5ncccc45)nc(N)c32)cc1)C(=O)O` [Example 105B, (5S,2S)-2-(3-(4-{4-amino-2-[1-(2-fluorobenzyl)-1H-pyrazolo[3,4-b]pyridin-3-yl]-5-methyl-6-oxo-6,7-dihydro-5H-pyrrolo[2,3-d]pyrimidin-5-yl}phenyl)propanamido)butanoic acid], for which the Ki in assay [1] is 0.042 nM. In assay [2], the Emax came out at 97% and the EC50 worked out at 2160 nM.

On to `CC(C)(Cc1coc(C2(C)C(=O)Nc3nc(-c4nn(Cc5c(F)ccc(F)c5F)c5cc(Cl)ccc45)nc(N)c32)n1)C(=O)O` (stereo not drawn) [Example 189A, 3-(2-{4-amino-2-[6-chloro-1-(2,3,6-trifluorobenzyl)-1H-indazol-3-yl]-5-methyl-6-oxo-6,7-dihydro-5H-pyrrolo[2,3-d]pyrimidin-5-yl}-1,3-oxazol-4-yl)-2,2-dimethyl-propanoic acid], for which, in assay [1], the Ki was 0.049 nM. Further, in assay [2], the Emax was 116% and the EC50 came to 51 nM.

Turning to `CC(C)(Cc1csc([C@]2(C)C(=O)Nc3nc(-c4nn(CC5CCCCC5)c5cc(F)ccc45)nc(N)c32)n1)C(=O)O` [Example 201A, (S)-3-(2-{4-amino-2-[1-(cyclohexyl-methyl)-6-fluoro-1H-indazol-3-yl]-5-methyl-6-oxo-6,7-dihydro-5H-pyrrolo[2,3-d]pyrimidin-5-yl}-1,3-thiazol-4-yl)-2,2-dimethyl-propanoic acid], the Ki in assay [1] turned out to be 0.151 nM. In assay [2], the Emax stood at 91.2% and the EC50 was determined as 39 nM.

`COCCn1nc(-c2nc(N)c3c(n2)NC(=O)[C@@]3(C)c2ccc(CCC(=O)O)cc2)c2ccc(Cl)cc21` (single isomer, unassigned) [Example 40B]: the Ki in assay [1] was 4.38 nM. Further, in assay [2], the Emax turned out to be 94% and the EC50 turned out to be 2560 nM.

Take `CC1(c2ccc(CCC(=O)O)c(O)c2)C(=O)Nc2nc(-c3nn(CCC(F)(F)C(F)(F)F)c4cc(Cl)ccc34)nc(N)c21` (stereo not drawn) [Example 122B, 3-(4-{4-Amino-2-[6-chloro-1-(3,3,4,4,4-pentafluorobutyl)-1H-indazol-3-yl]-5-methyl-6-oxo-6,7-dihydro-5H-pyrrolo[2,3-d]pyrimidin-5-yl}-2-hydroxyphenyl)propanoic acid]: in assay [1], the Ki worked out at 0.326 nM. In assay [2], the Emax turned out to be 115% and the EC50 stood at 895 nM.

`CC1(c2ccc(Cc3nn[nH]n3)cc2)C(=O)Nc2nc(-c3nn(Cc4ccccc4F)c4cc(Cl)ccc34)nc(N)c21` (stereo not drawn) [Example 244A, 5-{4-[(2H-tetrazol-5-yl)methyl]phenyl}-4-amino-2-[6-chloro-2-(2-fluorobenzyl)-1H-indazol-3-yl]-5-methyl-5,7-dihydro-6H-pyrrolo[2,3-d] pyrimidin-6-one]: the Ki in assay [1] turned out to be 0.063 nM. In addition, in assay [2], the Emax stood at 93.3% and the EC50 is 2730 nM.

Turning to `CC1CCC(Cn2nc(-c3nc(N)c4c(n3)NC(=O)[C@@]4(C)c3nc(CC(C)(C)C(=O)O)cs3)c3ccc(F)cc32)CC1` (single isomer, unassigned) [Example 136AB], in assay [1], the Ki was determined as 0.218 nM. Besides, the “% Activation” value in assay [2] (activity expressed as percentage of compound A (standard)) worked out at 71.4%. Further, the EC50 in assay [2] worked out at 23 nM.

For `C[C@@]1(c2ccc(CCc3nn[nH]n3)cc2)C(=O)Nc2nc(-c3nn(Cc4ccccc4F)c4ccccc34)nc(N)c21` [Example 242B, (S)-4-amino-2-[1-(2-fluoro-benzyl)-1H-indazol-3-yl]-5-methyl-5-{4-[2-(2H-tetrazol-5-yl)ethyl]phenyl}-5,7-dihydro-6H-pyrrolo[2,3-d] pyrimidin-6-one], the inhibition constant Ki in assay [1] was determined as 1.11 nM. Further, in assay [2], the Emax was determined as 107% and the EC50 was 3100 nM.

The values above are taken from patent US10030027B2, “Soluble guanylate cyclase stimulators” (MERCK SHARP & DOHME CORP., priority 2015, dated 2018).
